Here are results for two compounds from patent publication US10155021B2, “Antimicrobial 4-oxoquinolizines” (Emergent Product Development Gaithersburg Inc., priority 2011, dated 2018).

A word on the MBC: it is the lowest tested concentration that kills the bacteria rather than only halting them.

One experiment deals with B. anthracis. Put plainly: microbe, parasite or virus in culture. Conditions: Bacillus anthracis, read-out: MIC B. anthracis. Type of experiment: cell-based.
The next experiment deals with F. tularensis. Put plainly: microbe, parasite or virus in culture. The class given is cell-based. The note with it: Francisella tularensis, read-out: MIC F. tularensis.
In another experiment the test system is B. abortus. Put plainly: microbe, parasite or virus in culture. Type of experiment: cell-based. Conditions: Brucella abortus, read-out: MIC B. abortus.
The subject of a further experiment is B. pseudomallei. Briefly: microbe, parasite or virus in culture. The note with it: Burkholderia pseudomallei, read-out: MIC B. pseudomallei. Type of experiment: cell-based.
The test system of experiment [1] is A. baumannii ATCC 19606. Put plainly: MIC determination for Acinetobacter strains (Example 3). The class given is cell-based. The note with it: ATCC19606, reference strain.
Experiment [2] concerns Acinetobacter spp. H064200250. The experiment is described as above. Conditions: LEV R, CIP R, MRP R, IMP I. Type of experiment: cell-based, Acinetobacter sp.
The test system of experiment [3] is A. baumannii A489. The experiment is described as above. Conditions: LEV R, CIP R, MRP R, IMP R, AMK R, TET R. Type of experiment: cell-based.
The test system of experiment [4] is A. baumannii A390. Described as above. The class given is cell-based. The note with it: LEV R, CIP R, MRP R, IPM I, AMK R, TET I.
Experiment [5] concerns A. baumannii A472. Described as above. Type of experiment: cell-based. Conditions: LEV R, CIP R, MRP I, IMP I, AMK R, TET R.
For experiment [6], the system named is A. baumannii A473. The experiment is described as above. Type of experiment: cell-based. Conditions: LEV R, CIP R, MRP R, IMP R, AMK R, TET R.
For experiment [7], the system named is resistant strains of A. baumannii and one strain of Acinetobacter sp. Put plainly: MIC without and with sub-inhibitory polymyxin B, whole panel / MIC ranges (Example 4; also strains not listed separately). Conditions: for MIC: Acinetobacter baumannii, without polymyxin B, 2nd experiment. The class given is cell-based.
For experiment [8], the system named is 11 strains of A. baumannii and one strain of Acinetobacter sp. Briefly: Preliminary MBC without and with sub-inhibitory polymyxin B, whole panel (Example 4; also strains not listed separately). The class given is cell-based. Conditions: Acinetobacter baumannii.
Experiment [9] has as its system A. baumannii ATCC 19606. Put plainly: MIC without and with sub-inhibitory polymyxin B (Example 4). The class given is cell-based, Acinetobacter baumannii. The note with it: Acinetobacter baumannii, ATCC19606, A. baumannii ATCC 19606, without polymyxin B, read-out: MIC without PB.
Experiment [10] deals with Acinetobacter sp. (H064200250). Described as above. Type of experiment: cell-based. The note with it: Acinetobacter, without polymyxin B, read-out: MIC without PB.
Experiment [11] relates to A. baumannii A390. Described as above. Type of experiment: cell-based, Acinetobacter baumannii. The note with it: Acinetobacter baumannii, A390, A. baumannii A390, without polymyxin B, read-out: MIC without PB.
Experiment [12] deals with A. baumannii A401. The experiment is described as above. Type of experiment: cell-based, Acinetobacter baumannii. Conditions: Acinetobacter baumannii, A401, A baumannii A 401; without polymyxin B; 2nd experiment; visual reading; read-out: MIC without PB.
The test system of experiment [13] is A. baumannii A472. The description is as above. The class given is cell-based, Acinetobacter baumannii. Conditions: Acinetobacter baumannii, A472, A. baumannii A472, without polymyxin B, read-out: MIC without PB.
Experiment [14] has as its system A. baumannii A473. The experiment is described as above. Type of experiment: cell-based, Acinetobacter baumannii. The note with it: Acinetobacter baumannii, A473, A. baumannii A473; without polymyxin B; 1st experiment; read-out: MIC without PB.
The test system of experiment [15] is A. baumannii A489. Described as above. Type of experiment: cell-based, Acinetobacter baumannii. Conditions: Acinetobacter baumannii, A489, A. baumannii A489, without polymyxin B, read-out: MIC without PB.
The test system of experiment [16] is A. baumannii ATCC 19606. Put plainly: Preliminary MBC without and with sub-inhibitory polymyxin B (Example 4). The class given is cell-based, Acinetobacter baumannii. Conditions: Acinetobacter baumannii, ATCC19606, read-out: MBC without PB, A. baumannii ATCC 19606, without polymyxin B, preliminary MBC.
The test system of a further experiment is A. baumannii J2. The description is as above. Type of experiment: cell-based, Acinetobacter baumannii. Conditions: Acinetobacter baumannii, J2, read-out: MBC without PB.
Experiment [17] relates to Acinetobacter sp. (H064200250). Described as above. The class given is cell-based. The note with it: Acinetobacter, read-out: MBC without PB. As to the method: The plates were incubated for 18-20 hours at 37° C. The MBC was read as the lowest concentration at which colony growth was ca. 90% less than the positive control (i.e. usually where single colonies or no colonies were observed).

The next experiment relates to A. baumannii A329. The description is as above. The class given is cell-based, Acinetobacter baumannii. The note with it: Acinetobacter baumannii.
The subject of experiment [18] is A. baumannii A390. Described as above. The class given is cell-based, Acinetobacter baumannii. The note with it: Acinetobacter baumannii, A390, read-out: MBC without PB.
Experiment [19] has as its system A. baumannii A401. The experiment is described as above. Type of experiment: cell-based, Acinetobacter baumannii. Conditions: Acinetobacter baumannii, A401, read-out: MBC without PB.
Experiment [20] concerns A. baumannii A472. The description is as above. Type of experiment: cell-based, Acinetobacter baumannii. The note with it: Acinetobacter baumannii, A472, read-out: MBC without PB, A. baumannii A472, without polymyxin B, 2nd experiment.
Experiment [21] relates to A. baumannii A489. The description is as above. The note with it: Acinetobacter baumannii, A489, read-out: MBC without PB, A. baumannii A489, without polymyxin B, 2nd experiment. Type of experiment: cell-based, Acinetobacter baumannii.

Values after ≈ are worked out from the molar mass of the structure shown. Where two headings read alike, the source gives them in different places.

On to `Cc1c(-c2cccc(N)c2)ccn2c(=O)c(C(=O)O)cc(C3CC3)c12` [Compound 9, 8-(3-amino-phenyl)-1-cyclopropyl-9-methyl-4-oxo-quinolizine-3-carboxylic acid], for which the MIC was 0.06 µg/mL (≈ 0.179 µM) in the experiment with B. anthracis, 0.125 µg/mL (≈ 0.374 µM) in the experiment with F. tularensis, 0.25 µg/mL (≈ 0.748 µM) in the experiment on B. abortus and 0.5 µg/mL (≈ 1.5 µM) in the experiment with B. pseudomallei.
For `COc1c(N2C[C@@H]3CCCN[C@@H]3C2)c(F)cc2c(=O)c(C(=O)O)cn(C3CC3)c12` [Moxifloxacin, reference compound], the MIC was found to be 0.5 µg/mL (≈ 1.25 µM) in the experiment on A. baumannii ATCC 19606 [1]; 16 µg/mL (≈ 39.9 µM) in experiment [2]; 16 µg/mL (≈ 39.9 µM) against A. baumannii A489 [3]; 16 µg/mL (≈ 39.9 µM) with A. baumannii A390 [4]; 16 µg/mL (≈ 39.9 µM) against A. baumannii A472 [5]; 16 µg/mL (≈ 39.9 µM) against A. baumannii A473 [6]. The MIC was 64 µg/mL (≈ 159 µM) in [7] (NCTC13301, A. baumannii NCTC 13301, visual reading, read-out: MIC without PB); 8 to 64 µg/mL (≈ 19.9 to 159 µM) in experiment [7] (11 strains, read-out: MIC range without PB 14-10-2008 n = 11); 0.5 µg/mL (≈ 1.25 µM) with A. baumannii ATCC 19606 [9] (1st experiment); 1 µg/mL (≈ 2.49 µM) with A. baumannii ATCC 19606 [9] (2nd experiment, visual reading); 16 µg/mL (≈ 39.9 µM) in [10] (Acinetobacter spp. H064200250 (OXA51), 2nd experiment, visual reading); 16 µg/mL (≈ 39.9 µM) in [10] (Acinetobacter spp. H064200250, 1st experiment). Moreover, the MIC with A. baumannii A390 [11] (1st experiment) stood at 16 µg/mL (≈ 39.9 µM); in the experiment on A. baumannii A390 [11] (2nd experiment, visual reading), 16 µg/mL (≈ 39.9 µM); with A. baumannii A401 [12], 16 µg/mL (≈ 39.9 µM); in the experiment on A. baumannii A472 [13] (1st experiment), 16 µg/mL (≈ 39.9 µM); with A. baumannii A472 [13] (2nd experiment, visual reading) it was 16 µg/mL (≈ 39.9 µM); in the experiment on A. baumannii A473 [14], 16 µg/mL (≈ 39.9 µM). The MIC in the experiment on A. baumannii A489 [15] (1st experiment) stood at 16 µg/mL (≈ 39.9 µM); in the experiment with A. baumannii A489 [15] (2nd experiment, visual reading), 16 µg/mL (≈ 39.9 µM). Moreover, the “fold greater activity (fold lower MIC) in presence of polymyxin B compared to without polymyxin B” value in experiment [7] was “not significantly affected”. Also, the minimal bactericidal concentration (MBC) in [8] (NCTC13301, read-out: MBC without PB, A. baumannii NCTC 13301, without polymyxin B, 1st experiment) turned out to be 32 µg/mL (≈ 79.7 µM); in experiment [8] (NCTC13301, read-out: MBC without PB, A. baumannii NCTC 13301, without polymyxin B, 2nd experiment), 64 µg/mL (≈ 159 µM); in [8] (read-out: MBC without PB, A. baumannii A14, without polymyxin B, 1st experiment) it was 32 µg/mL (≈ 79.7 µM); in experiment [8] (read-out: MBC without PB, A. baumannii A14, without polymyxin B, 2nd experiment), 32 µg/mL (≈ 79.7 µM); in the experiment with A. baumannii ATCC 19606 [16] (2nd experiment), 1 µg/mL (≈ 2.49 µM); in the experiment with A. baumannii ATCC 19606 [16] (1st experiment), 0.5 µg/mL (≈ 1.25 µM). The MBC with A. baumannii J2 turned out to be 32 µg/mL (≈ 79.7 µM); in [17], 16 µg/mL (≈ 39.9 µM); in the experiment on A. baumannii A329 (A329, read-out: MBC without PB, A. baumannii A329, without polymyxin B, 1st experiment) it was 64 µg/mL (≈ 159 µM); in the experiment on A. baumannii A329 (A329, read-out: MBC without PB, A. baumannii A329, without polymyxin B, 2nd experiment), 32 µg/mL (≈ 79.7 µM); in the experiment with A. baumannii A390 [18] it was 16 µg/mL (≈ 39.9 µM); in the experiment with A. baumannii A401 [19] it was 16 µg/mL (≈ 39.9 µM). Besides, the MBC in the experiment on A. baumannii A472 [20] and in the experiment on A. baumannii A489 [21] was 16 µg/mL (≈ 39.9 µM) in each case.
